Results from US5134150A, “Inhibition of the 5-lipoxygenase pathway” (priority 1989, dated 1992).
Entries after “also recorded” stand apart in the source; their conditions may differ.

Key:
[1] = system: Carrageenan-Induced Cellular Infiltration into the Rat Air Pouch; assay: Carrageenan-induced air pouch inflammation; format: in vivo, rat (male Lewis); settings: for Cell infiltration into carrageenan air pouch, result in words: rat, in vivo
Text: (§1) In the following Examples where mice were used, they were male Balb/c mice (20-28 g), and where rats were used, they were male Lewis rats (180-210 g). All mice and rats were obtained from Charles River Breeding Laboratories, Kingston, N.Y. Within a single experiment, mice and rats were sex and age matched.
(§2) The compounds of Formula (I) were used either as the free base or in the appropriate salt form. Levamisole was used as the hydrochloride salt. The compounds were homogenized in 0.5% tragacanth. Compounds were administered by gavage at the indicated dose in a final volume of 10 ml/kg. Nordihydroguaiaretic acid (NDGA) was solubilized in dimethylacetamide and diluted with olive oil for subcutaneous administration.
(§3) Rats were shaved on the dorsal flank, and then injected subcutaneously one day later with 20 ml of air to form a defined pouch, by the method of Sedgwick et al., J. Pathology, 141, 483-495 (1983). The air pouch was reinflated as necessary over the next 6 days. To assay anti-inflammatory activity, animals were treated orally with test compound or vehicle (10 ml/kg) one hour before injection of 2.0 ml of a 2.0% carrageenan suspension containing […] penicillin and 100 µg/ml streptomycin into the air pouch. In other experiments, 5 ml of 0.1% arachidonic acid in 0.2M bicarbonate buffer was injected two hours after drug treatment. Animals were sacrificed using CO2 three hours after instillation of irritant. The exudate was then aspirated from the pouch and neutrophil count and differential cell count were measured.

[2] = system: Arachidonic Acid-Induced Cellular Infiltration into the Rat Air Pouch; assay: Arachidonic acid-induced air pouch inflammation; format: in vivo, rat (male Lewis); settings: for Cell infiltration into arachidonic acid air pouch, result in words: rat, in vivo
Text: as §1, §2, §3

[3] = system: Infiltration of Polymorphonuclear Leukocytes into Sites of Carrageenan-Induced Inflammation; assay: Mouse carrageenan peritonitis (PMN infiltration); format: in vivo, mouse (male Balb/c); settings: for PMN infiltration, result in words: carrageenan peritonitis, mice
[4] = system: 5-lipoxygenase and LTA4 synthetase; assay: Di-HETE / LTB4 production by high speed supernatant of RBL-1 cells; format: biochemical
Procedure: For in vitro experiments, compounds were dissolved at appropriate concentrations in ethanol or DMSO (dimethylsulfoxide) (final concentration≤1.0%) and then diluted to final concentrations using the buffers indicated in the text.
The activities of these enzymes in extracts of RBL-1 cells were assayed using the method of Jakschik and Lee, Nature, 287, 51-52 (1980). RBL-1 cells were obtained from the American Type Culture Collection (#CRL 1378) and were grown at 37° C. (5% CO2 in air) in spinner culture in MEM supplemented with 10% heat inactivated fetal calf serum. Harvested cells were washed with 50 mM sodium phosphate buffer, pH 7.0, containing 1 mM EDTA and 0.1% gelatin, resuspended in fresh buffer (5×10^7 cells/ml) and disrupted by nitrogen cavitation using the Parr bomb at 750 psi for 10 min. The broken cell extract was then centrifuged at 10,000× g for 20 minutes (min) and the supernatant centrifuged at 100,000 xIg for 60 min. Aliquots (0.25 mls) of the supernatant were preincubated with or without drugs for 10 min, after which 10 μl CaCl2 (50 mM) was added and the reaction was initiated with 2.5 μl of 2.5 mM arachidonic acid-1-^14 C (final concentration was 25 μM; specific activity 20,000 dpm/nmole). After incubation for 3 min at 37° C., the reaction was terminated by addition of 2 volumes (0.5 ml) ice cold acetone and the sample was allowed to deproteinize on ice for 10 min prior to centrifugation at 1,000× g for 10 min. The deproteinized supernatant was adjusted to pH 3.5 with 2N formic acid and extracted with 2 volumes of ice cold ethyl acetate. The extracted samples were dried under argon, redissolved in ethyl acetate and applied to Whatman LK5D thin layer chromatography (TLC) plates which were developed using the A-9 solvent system [organic phase of ethyl acetate: 2,2,5-trimethylpentane:acetic acid: water (110:50:20:10)] described by Hamberg and Samuelsson, J. Biol. Chem., 241, 257-263 (1966). Arachidonic acid, 5-HETE, LTB4 and PGD2 were quantified with a Berthold LB 2832 autoscanner.
The 5-lipoxygenase and LTA4 synthetase activities were further studied under the following conditions. An additional centrifugation of the RBL-1 supernatant was run at 100,000× g for 60 min, to remove the particulate cyclooxygenase activity. Sample incubation was done under conditions similar to those described above, i.e., 2 mM CaCl2 and […] arachidonic acid-1-^14 C, however, with an incubation time of 5 min at 5° C. Under these conditions, only the 5-lipoxygenase pathway metabolites were detectable. The 5-HETE and di-HETEs were formed at a linear rate, and substantial amounts of the arachidonic acid-1-^14 C substrate were utilized.

[5] = system: Arachidonic Acid-Induced Rat Paw Edema; assay: Arachidonic acid-induced rat paw swelling; format: in vivo, rat (male Lewis)
Text: as §1
Auranofin, phenidone, indomethacin, naproxen, and ibuprofen were each used as the free base. The compounds of Formula (I) were used either as the free base or in the appropriate salt form. Levamisole was used as the hydrochloride salt. The compounds were homogenized in 0.5% tragacanth. Compounds were administered by gavage at the indicated dose in a final volume of 10 ml/kg. Nordihydroguaiaretic acid (NDGA) was solubilized in dimethylacetamide and diluted with olive oil for subcutaneous administration.
After determining pretreatment paw volumes by plethysmography by the method of Webb and Griswold, J. Pharmacol. Methods, 12, 149-153 (1984), rats were given test compound or vehicle one hour prior to the subplantar injection of 0.1 ml of 1 mg/ml arachidonic acid. Paw volumes were then remeasured and compared to pretreatment values and the increase in paw volume was expressed as mean values ± S.D.

[6] = system: Arachidonic Acid-Induced Inflammation of the Mouse Ear; assay: Arachidonic acid-induced mouse ear inflammation; format: in vivo, mouse (male Balb/c); settings: for Mouse ear edema, result in words: in vivo
Text: as §1, §2
Arachidonic acid in acetone ([…]) was applied to the inner surface of the left ear. The thickness of both ears was then measured with a dial micrometer one hour after treatment, and the data were expressed as the change in thickness (10^-3 cm) between treated and untreated ears.
Test compounds were given orally in 0.5% tragacanth at the times indicated in the text prior to the topical application of arachidonic acid.
Parenteral administration of compound was accomplished by subcutaneous injection of solution as indicated.

[7] = 5 mg/kg, 2 hours post arachidonic acid

COc1ccc2c(c1)c(CC(=O)O)c(C)n2C(=O)c1ccc(Cl)cc1 [Indomethacin]
Cellular Infiltrate MN ([1]; 5 mg/kg): 4.0 ± 0.8 Total × 10^-6 | Cellular Infiltrate PMN ([1]; 5 mg/kg): 2.8 ± 0.7 Total × 10^-6 | Exudate Volume ([1]; 5 mg/kg): 2.0 ± 0.5 mL | Cell infiltration into carrageenan air pouch, result in words [1]: reduction in the PMN count and the PMN:mononuclear cell ratio | Cellular Infiltrate MN ([2]; 5 mg/kg): 7.0 ± 6.4 Total × 10^-6 | Cellular Infiltrate PMN ([2]; 5 mg/kg): 5.0 ± 3.8 Total × 10^-6 | Exudate Volume ([2]; 5 mg/kg): 2.5 ± 0.8 mL | Cell infiltration into arachidonic acid air pouch, result in words [2]: did not reduce inflammation or cell infiltration; also recorded: no significant effect on cell infiltration | % Change (PMN) ([3]; 10 mg/kg, p.o., Table 3): -12% | PMN (Mean ± S.D.) ([3]; 10 mg/kg, p.o., Table 3): 8.20 ± 2.65 × 10^-5 /ml | PMN infiltration, result in words [3]: did not impair inflammatory cell infiltration | Inhibition of eicosanoid formation / LTB4, result in words ([4]; indomethacin: concentrations up to 10^-4 M): inactive | % Inhibition (paw volume) [5, 7]: 0% | Change in Paw Volume [5, 7]: 0.29 ± 0.06 mL | % Change (ear thickness) ([6]; 10 mg/kg, p.o.): -5% | Increase in Ear Thickness at 1 Hour ([6]; 10 mg/kg, p.o.): 24.4 ± 0.8 × 10-3 cm | Mouse ear edema, result in words [6]: did not exhibit detectable anti-inflammatory activity

Fc1ccc(-c2nc3n(c2-c2ccncc2)CCS3)cc1 [Compound 1]
Cellular Infiltrate MN ([1]; 100 mg/kg): 5.5 ± 3.8 Total × 10^-6 | Cellular Infiltrate PMN ([1]; 100 mg/kg): 2.6 ± 1.3 Total × 10^-6 | Exudate Volume ([1]; 100 mg/kg): 1.0 ± 0.9 mL | Cell infiltration into carrageenan air pouch, result in words [1]: significant inhibition of polymorphonuclear leukocyte infiltration | Cellular Infiltrate MN ([2]; 100 mg/kg): 1.5 ± 1.1 Total × 10^-6 | Cellular Infiltrate PMN ([2]; 100 mg/kg): 1.2 ± 0.7 Total × 10^-6 | Exudate Volume ([2]; 100 mg/kg): 2.6 ± 0.8 mL | Cell infiltration into arachidonic acid air pouch, result in words [2]: significantly reduced PMN and mononuclear cell infiltration | PMN infiltration, result in words [3]: reduced dramatically | Di-HETE ([4]; 1 μM): 1.56 ± 0.06 nM/ml | Di-HETE ([4]; 3.3 μM): 1.34 ± 0.12 nM/ml | Di-HETE ([4]; 10 μM): 0.88 ± 0.21 nM/ml | Di-HETE ([4]; 33 μM): 0.40 ± 0.08 nM/ml | Di-HETE ([4]; 100 μM): 0.03 ± 0.04 nM/ml | IC50 ([4]; soluble extract of RBL-1 cells containing only lipoxygenase activity, read-out: IC50, eicosanoid formation (LTB4 production)): 7.5 µM | Change in Paw Volume ([5]; 100 mg/kg, 2 hours post arachidonic acid): 0.06 ± 0.05 mL | Rat paw inflammatory response, result in words ([5]; rat, in vivo): inhibited significantly | Increase in Ear Thickness at 1 Hour ([6]; 50 mg/kg, p.o.): 10.0 ± 1.5 × 10-3 cm | Mouse ear edema, result in words [6]: marked inhibition of the edematous response
